For data set [1], the system named is phospho-S6 in MOLM-13 cells. In words: Phospho-S6 by flow cytometry. It counts as cell-based, human. The following applies: MOLM-13; MPC-0767 800 nM, ATO 625 nM or combination; 24 hours. How it is done:
(§1) To determine whether MPC-0767 can promote the degradation of FLT3-ITD and abolish downstream signaling, MV-4-11 and MOLM-13 cells were treated with vehicle or MPC-0767 (1 μM) for 24 hours. Cells were harvested for flow cytometry to assess cell surface FLT3 protein abundance. In addition, the measurement of a key phosphorylation site of S6 (phospho-S6) was used as a marker for oncogenic FLT3-ITD signaling (Zimmerman et al., Blood. 2013 122(22): 3607-3615). Indeed, in both MV-4-11 and MOLM-13 cells treated with MPC-0767 there was a >65% reduction in cell surface FLT3 (FIGS. 10A and 10B, respectively) and >70% reduction in phospho-S6 (FIGS. 10C and 10D, respectively).
(§2) We next explored whether the synergistic activity of MPC-0767 and ATO was due to a more complete abrogation of FLT3-ITD oncogenic signaling. […] After this time cells were harvested for the assessment of cell surface FLT3 expression by flow cytometry. To additionally measure the effects of abrogating FLT3, we assessed phospho-ERK (pERK) and phospho-S6 (pS6), as these are two known downstream effectors.
Background: Flow cytometry measures light scatter and fluorescence of single cells or particles in a stream.

In data set [2] the test system is cell surface FLT3 in MOLM-13 cells. As to the kind of experiment: Cell surface FLT3 by flow cytometry. The data set is classed as cell-based, human. The following applies: MOLM-13; MPC-0767 800 nM, ATO 625 nM or combination; 24 hours. How it is done:
as §1, §2

Data set [3] concerns phospho-ERK (pERK) in MOLM-13 cells. As to the kind of experiment: Phospho-ERK level. It counts as cell-based, human. The following applies: MPC-0767 800 nM, ATO 625 nM or combination, 24 hours.
Text: as §2

The next data set has as its system MOLM-13 cells (FLT3-ITD). In words: CellTiter-Glo cell viability (combination). The data set is classed as cell-based, human. The following applies: MOLM-13, 72 hours, average CI. How it is done:
(§3) Three cell lines which harbor FLT3-ITD were used for the drug combination studies (MV-4-11, MOLM-13, and MOLM-14).
(§4) Cells were treated with the drugs (single agent or combination) for 72 hours. Drug combination activity was determined by first measuring cell viability with CellTiter-Glo®, followed by the calculation of the EC50 corresponding to single agent activity, using the R DRC package (R Core Team, 2017). The combination index (CI) values were computed using the Chou-Talalay method (Chou T, Cancer Research., 2010 70(2): 440-6.), based on the viability of each drug alone and in combination, across all concentrations tested. In brief, CI was defined as: […]

The subject of a further data set is MOLM-14 cells (FLT3-ITD). In words: CellTiter-Glo cell viability (single agent and combination). The data set is classed as cell-based. The following applies: for IC50: Homo sapiens, MOLM-14, 72 h, 72 hours, read-out: EC50 (cell viability); for combination index (CI) of AML drug in combination with MPC-0767: MOLM-14, 72 hours, average CI (* n=1). How it is done: HS-5 is a human marrow stromal cell line that secretes various growth factors sufficient to support hematopoietic progenitor growth (Roecklein et al., Blood, 1995) which thus mimics stromal conditions.
as §3, §4
(§5) Loss of function mutations of KDM6A are observed in FLT3-ITD AML (Garg et al., 2015 Blood 126 (22):2491-501). […] To therapeutically exploit this finding, we hypothesized that inhibiting EZH2, the histone H3K27 methyltransferase that functionally opposes KDM6A, would enhance sensitivity to MPC-0767. To test this hypothesis, a FLT3-ITD cell line (MV-4-11) was used and treated with either of the two clinical stage EZH2 inhibitors, EPZ-6438 and CPI-1205, at 8 different concentrations for 4 days. Following this time, cells were counted, reseeded and treated with 8 concentrations of EZH2 inhibitor alone, 8 concentrations of MPC-0767 alone, or the combination of the two (64 total combinations).
For orientation: Cellular ATP, detected with luciferase, serves as a proxy for viable cell number.

The subject of a further data set is MV-4-11 cells (FLT3-ITD). Described as above. The data set is classed as cell-based. The following applies: MV-4-11, 72 hours, average CI. How it is done:
as §3, §4, §5

Data set [4] relates to MOLM-13-R-PKC412 (midostaurin-resistant) cells. In words: CellTiter-Glo cell viability. It counts as cell-based, human. The source says: (§6) In the clinic, tyrosine kinase inhibitors that target FLT3 initially show positive responses, but patients inevitably relapse due to the development of drug-resistance through various mechanisms, as discussed above.
The test system of data set [5] is BaF3 cells harboring FLT3-ITD. In words: CellTiter-Glo cell viability. The data set is classed as cell-based, murine. The following applies: Mus musculus, 72 hours. How it is done:
After this time cell viability was determined using CTG and EC50 values determined.
(§7) EC50 values were calculated using equation 1 (as described above).
BaF3 cells require the supplementation of IL-3 to activate the IL-3 receptor for growth. However, in BaF3 cells transfected with FLT3-ITD, cells no longer require IL3 as survival is solely driven by oncogenic FLT3 signaling.

Data set [6] has as its system BaF3 cells harboring FLT3-ITD F691L. As to the kind of experiment: CellTiter-Glo cell viability. It counts as cell-based, murine. How it is done:
as §7

For the next data set, the system named is MOLM-13-LUC cells. In words: CellTiter-Glo cell viability. It counts as cell-based. The following applies: Homo sapiens, 72 hours.
Text: as §6

In data set [7] the test system is MOLM-13 FLT3-ITD AML cell line. As to the kind of experiment: Systemic survival xenograft study, MPC-0767 with 5′azacitidine. The following applies: single agents: MPC-0767 75 mg/kg p.o.; 5′azacitidine 2 mg/kg QD×4 i.p.; vs vehicle.
Method: A systemic survival xenograft study was performed using the MOLM-13 FLT3-ITD harboring AML cell line.
Before tumor cell inoculation, NOD/SCID mice were pre-treated for 2 days with a daily intraperitoneal injection of 100 mg/kg cyclophosphamide to facilitate engraftment of the human MOLM-13 tumor cells. After the injection of cyclophosphamide, the animals were allowed to recover for 24 hours prior to inoculation with human MOLM-13 tumor cells. Each mouse was then inoculated with 1×10^7 MOLM-13 cells in 100 μL PBS via intravenous tail vein injection. Mice were next randomized into 4 groups of 6 mice each. […] Viability and body weight loss were monitored daily.
In data set [8] the test system is PD-1+ Jurkat reporter cells with THP-1 AML cells. In words: Jurkat NFAT-luciferase reporter T cell activation with THP-1 cells. The data set is classed as cell-based. The following applies: THP-1 treated 24 hr with IFNγ 50 ng/ml; PD-L1 blocking antibody added. The source says: The addition of antibodies that block the PD-1/PD-L1 pathway stimulate an increased T cell response in vitro, in pre-clinical animal models, and in cancer patients. This can lead to tumor regressions or tumor clearance in patients. To examine MPC-0767 effects on PD-L1 and T cell activation, we used a model system in which PD-1+ Jurkat T cells express luciferase under the control of the NFAT promoter (Promega, hereafter referred to Jurkat reporter cells). When T cells are stimulated through the T cell receptor (TCR), activation of the NFAT pathway drives expression of luciferase.
We next determined whether MPC-0767 reduction of PD-L1 could increase T cell stimulation similar to anti-PD-L1 blocking antibodies. THP-1 cells were treated overnight with IFNγ in the presence or absence of MPC-0767 (1 μM or 2 uM). THP-1 cells were washed and a portion saved for flow cytometry analysis of PD-L1 expression. The remaining cells were incubated with Jurkat reporter cells and anti-CD3 (10 ng/ml) for 6 hours.
(In general: Reporter assays use an easily measured gene product as a stand-in for the process of interest.)

The conditions of data set [9]: cited from earlier work.
Setting [10] is: MOLM-14, stromal media (HS-5 conditioned).

Like-named read-outs stand apart in the source and are kept apart here.

Broadly, the EC50 is the concentration giving half of the maximal effect.

On to “arsenic trioxide [ATO, reference compound]”, for which the pS6 level entry in data set [1] was “reduced”. Besides, the “FLT3 level (cell surface)” value in [2] is given as “reduced”. Further, the pERK level result in data set [3] was “mildly reduced”.
As for `CCc1nc(C(N)=O)c(Nc2ccc(N3CCC(N4CCN(C)CC4)CC3)c(OC)c2)nc1NC1CCOCC1` [gilteritinib], the “combination index (CI) of AML drug in combination with MPC-0767” value (shortened to “combination index (CI) of AML drug”) with MOLM-13 cells (FLT3-ITD) was “CI = 0.9”. Also, the IC50 was 6 nM in the data set on MOLM-14 cells (FLT3-ITD) (MOLM-14, non-stromal media) and over 100 nM in the data set on MOLM-14 cells (FLT3-ITD) (setting [10]).
On to `CC1(C)CCC(CN2CCN(c3ccc(C(=O)NS(=O)(=O)c4ccc(NCC5CCOCC5)c([N+](=O)[O-])c4)c(Oc4cnc5[nH]ccc5c4)c3)CC2)=C(c2ccc(Cl)cc2)C1` [Venetoclax, venetoclax], for which the “combination index (CI) of AML drug” value was “CI = 0.7” in the data set on MV-4-11 cells (FLT3-ITD); 0.7 in the data set on MV-4-11 cells (FLT3-ITD) (listed as venetoclax); “CI = 0.3” in the data set on MOLM-13 cells (FLT3-ITD); 0.3 in the data set with MOLM-13 cells (FLT3-ITD) (listed as venetoclax); “CI = 0.6” with MOLM-14 cells (FLT3-ITD).
In the case of `CC1(COc2ccc3c(c2)ncn3-c2ccc3cccc(N4CCC(N)CC4)c3n2)COC1` [crenolanib], the “combination index (CI) of AML drug” value in the data set on MV-4-11 cells (FLT3-ITD) is “CI = 0.7”; in the data set with MOLM-13 cells (FLT3-ITD), “CI = 0.9”. Further, the EC50 in [4] (Homo sapiens, MOLM-13-R-PKC412, 72 hours) is 25 nM; in [5], 4 nM; in [6] (Mus musculus, BaF3 FLT3-ITD-F691L, 72 hours), 90 nM; in the data set with MOLM-13-LUC cells, 9 nM. Besides, the “fold difference in EC50, midostaurin-resistant vs control cells” value in data set [4] (MOLM-13-R-PKC412 vs MOLM-13-LUC) is reported as “approximately 3 fold”. For the same compound, the IC50 in the data set on MOLM-14 cells (FLT3-ITD) (MOLM-14, non-stromal media) is 3 nM; in the data set with MOLM-14 cells (FLT3-ITD) (setting [10]), over 100 nM. For the same compound, in data set [6] (BaF3, 72 hours), the “fold resistance, FLT3-ITD-F691L vs FLT3-ITD” value was “approximately 23 fold”.
Take `Nc1ncn([C@@H]2O[C@H](CO)[C@@H](O)[C@H]2O)c(=O)n1` [5′azacitidine, reference compound]: in [7], the “increase in median survival” value was found to be 8 days.
Regarding `CNC(=O)c1cc(Oc2ccc(NC(=O)Nc3ccc(Cl)c(C(F)(F)F)c3)cc2)ccn1` [Sorafenib, sorafenib], the “combination index (CI) of AML drug” value in the data set on MV-4-11 cells (FLT3-ITD) is “CI = 0.8”.
For the compound atezolizulmab: PD-L1 blocking antibody, the “T cell activation (luciferase)” value in [8] is recorded as “restores T cell activation to untreated levels”.
Consider `C[C@H](O)C(=O)N1CCC(CCn2c(Sc3cc4c(cc3Br)OCO4)nc3c(N)ncnc32)CC1` [MPC-3100, (2S)-1-[4-(2-{6-Amino-8-[(6-bromo-1,3-benzodioxol-5-yl)sulfanyl]-9H-purin-9-yl}ethyl)piperidin-1-yl]-2-hydroxypropan-1-one, reference compound], for which the aqueous solubility result in [9] is given as “poor solubility”.
Take `Nc1ccn([C@@H]2O[C@H](CO)[C@@H](O)[C@@H]2O)c(=O)n1` [Cytarabine, cytarabine]: the “combination index (CI) of AML drug” value is on record as “CI = 0.8” with MV-4-11 cells (FLT3-ITD) and “CI = 0.9*” in the data set on MOLM-14 cells (FLT3-ITD).

The record behind these values is patent publication US20200253979A1, “THERAPEUTIC METHODS RELATING TO HSP90 INHIBITORS” (AI Therapeutics, Inc., priority 2017, published 2020).
